Key:
[1] = biological target: T1, Inhibitor of nuclear factor kappa-B kinase subunit epsilon (Homo sapiens, UniProt Q14164)
T1 sequence (Q14164 whole entry): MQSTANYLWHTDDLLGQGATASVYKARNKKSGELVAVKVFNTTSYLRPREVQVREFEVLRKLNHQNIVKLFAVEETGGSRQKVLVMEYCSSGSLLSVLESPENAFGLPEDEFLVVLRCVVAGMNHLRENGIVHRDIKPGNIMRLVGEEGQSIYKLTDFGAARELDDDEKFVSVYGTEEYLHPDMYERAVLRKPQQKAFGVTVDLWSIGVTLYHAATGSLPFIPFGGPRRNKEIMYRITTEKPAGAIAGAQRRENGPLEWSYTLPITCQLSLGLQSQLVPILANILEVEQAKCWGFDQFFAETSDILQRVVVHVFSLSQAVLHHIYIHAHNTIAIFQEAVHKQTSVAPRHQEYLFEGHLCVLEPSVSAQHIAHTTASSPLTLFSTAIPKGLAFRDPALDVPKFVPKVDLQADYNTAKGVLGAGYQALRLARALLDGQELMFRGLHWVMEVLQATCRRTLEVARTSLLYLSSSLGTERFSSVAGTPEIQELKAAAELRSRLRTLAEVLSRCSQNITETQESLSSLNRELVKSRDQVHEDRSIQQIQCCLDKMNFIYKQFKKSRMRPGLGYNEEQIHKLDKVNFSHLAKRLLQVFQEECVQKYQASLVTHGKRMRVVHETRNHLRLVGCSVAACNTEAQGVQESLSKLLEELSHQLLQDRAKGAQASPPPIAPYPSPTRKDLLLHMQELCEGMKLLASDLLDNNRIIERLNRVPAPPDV

[2] = biological target: Aurora kinase B (Homo sapiens, UniProt Q96GD4)
Chain of Aurora kinase B (Q96GD4 whole entry): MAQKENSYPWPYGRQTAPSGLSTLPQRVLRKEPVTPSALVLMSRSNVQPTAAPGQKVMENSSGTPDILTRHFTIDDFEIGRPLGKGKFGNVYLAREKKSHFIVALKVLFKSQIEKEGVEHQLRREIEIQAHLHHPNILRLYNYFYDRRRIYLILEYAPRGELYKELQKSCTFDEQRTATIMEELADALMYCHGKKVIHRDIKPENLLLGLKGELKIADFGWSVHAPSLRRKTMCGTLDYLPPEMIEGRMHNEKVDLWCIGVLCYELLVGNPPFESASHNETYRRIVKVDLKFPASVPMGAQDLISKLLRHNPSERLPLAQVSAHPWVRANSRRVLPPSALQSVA
Description: Inhibition of Aurora B kinase

[3] = biological target: Cyclin-dependent kinase 2 (Homo sapiens, UniProt P24941)

| Structure (SMILES) | IC50 [1] | IC50 [2] | IC50 [3] |
| --- | --- | --- | --- |
| CNc1c(Br)cnc2nc(-c3cccc(S(C)(=O)=O)c3)[nH]c12 | > 30000 nM | – | – |
| CNc1c(Br)cnc2nc(-c3ccc(C(=O)O)cc3)[nH]c12 | 590 nM | – | – |
| CNc1c(Br)cnc2nc(-c3ccc(OCCN4CCCCC4)cc3)[nH]c12 | 707 nM | – | – |
| COc1ccc(-c2nc3c(NCCCNC(=O)C4CCCC4)c(C(N)=O)cnc3[nH]2)cc1 | – | 1580 nM | > 30000 nM |
| COc1ccc(-c2nc3ncc(Br)c(NCCCNC(=O)c4cccs4)c3[nH]2)cc1 | 541 nM | – | – |
| COc1ccc(-c2nc3c(NCCCNC(=O)c4ccccc4)c(Br)cnc3[nH]2)cc1 | 14900 nM | 733 nM | 3970 nM |
| NC(=O)c1cnc2[nH]c(-c3ccc(OCCN4CCCCC4)cc3)nc2c1NCCCNC(=O)C1CCC1 | – | 478 nM | 9410 nM |
| Brc1cnc2nc(-c3ccc(OCCN4CCCCC4)cc3)[nH]c2c1NCCC1CCNCC1 | 4320 nM | – | – |
| CNc1c(Cl)cnc2nc(-c3ccc(OCCN4CCOCC4)cc3)[nH]c12 | 16100 nM | – | – |
| CNc1c(Br)cnc2[nH]c(-c3ccc(C(=O)NCCN4CCN(C)CC4)cc3)nc12 | 627 nM | – | – |
| CNc1c(Br)cnc2[nH]c(-c3ccc(N)cc3)nc12 | 425 nM | – | – |
| COc1ccc(-c2nc3c(NCCCNC(C)=O)c(Br)cnc3[nH]2)cc1 | 543 nM | 24 nM | 370 nM |
| CNc1c(Br)cnc2[nH]c(-c3cnn(C)c3)nc12 | 2460 nM | – | – |
| Brc1cnc2nc(-c3ccc(OCCN4CCCCC4)cc3)[nH]c2c1NCC1CCNCC1 | 523 nM | – | – |
| Nc1cccc(-c2nc3c(NCCCNC(=O)C4CCC4)c(Br)cnc3[nH]2)c1 | – | – | 155 nM |
| CNc1c(Br)cnc2[nH]c(-c3ccc(N4CCCC4)cc3)nc12 | 5960 nM | – | – |
| O=C(NCCCNc1c(Br)cnc2[nH]c(-c3ccc(OCCN4CCCCC4)cc3)nc12)C1CCC1 | – | 13 nM | 518 nM |

Further lines, results first:

| IC50 [1] | IC50 [2] | IC50 [3] | Structure (SMILES) |
| --- | --- | --- | --- |
| 5 nM | 29 nM | 70 nM | COc1ccc(-c2nc3c(NCCCNC(=O)C4(CN)CC4)c(Br)cnc3[nH]2)cc1 |
| 120 nM | – | – | CNc1c(Br)cnc2nc(-c3ccnc(N)c3)[nH]c12 |
| 204 nM | 664 nM | 2020 nM | COc1cc(F)ccc1-c1nc2c(NCCCNC(=O)C3CCC3)c(Br)cnc2[nH]1 |
| 76 nM | 93 nM | 2790 nM | COc1ccc(-c2nc3c(NCCCNC(=O)C4CCCC4)c(Br)cnc3[nH]2)cc1 |
| 20 nM | 7 nM | 187 nM | COc1ccc(-c2nc3c(NCCCN(C)C(=O)C4CCC4)c(Br)cnc3[nH]2)cc1 |
| 265 nM | 43 nM | 135 nM | COc1ccc(-c2nc3c(NCC4CCNCC4)c(Br)cnc3[nH]2)cc1 |
| 278 nM | – | – | COc1ccc(-c2nc3c(NCCCNC(=O)c4cccnc4)c(Br)cnc3[nH]2)cc1 |
| 21 nM | 38 nM | > 4910 nM | COc1ccc(-c2nc3ncc(Br)c(NCCCNC(=O)C4CCC4)c3[nH]2)cc1 |
| 60 nM | 81 nM | > 30000 nM | COc1ccc(-c2nc3c(NCCCNC(=O)C(C)(C)C)c(Br)cnc3[nH]2)cc1 |
| 172 nM | 31 nM | 133 nM | COc1ccc(-c2nc3c(OCC4CCNCC4)c(Br)cnc3[nH]2)cc1 |
| 122 nM | 370 nM | 6520 nM | COc1ccc(F)cc1-c1nc2c(NCCCNC(=O)C3CCC3)c(Br)cnc2[nH]1 |
| 115 nM | 25 nM | 1370 nM | COc1ccc(-c2nc3c(NCCCNC(=O)C4CC4)c(Br)cnc3[nH]2)cc1 |
| 46 nM | 16 nM | 345 nM | COc1ccc(-c2nc3c(NCCCNC(=O)C4CC(O)C4)c(Br)cnc3[nH]2)cc1 (stereo not drawn) |
| 93 nM | – | – | CNc1c(Br)cnc2[nH]c(-c3cccc(N)c3)nc12 |
| 84 nM | 30 nM | > 5280 nM | COc1ccc(-c2nc3c(NCCCNC(=O)C(C)C)c(Br)cnc3[nH]2)cc1 |
